From patent US6551632B2, “Methods and compositions for treating inflammatory bowel disease” (priority 1997, dated 2003)

System: Patients with Inflammatory Bowel Disease
Assay: Treatment of patients with inflammatory bowel disease using a combination of anti-atypical mycobacterial agents (Example 1)
Protocol: Fifteen patients, aged 13 to 58, were treated with various protocols of antimycobacterial agents. Twelve patients had Crohn's disease and three ulcerative colitis. Presence of Mycobacterium paratuberculosis was identified in nine of these patients. A combination of clarithromycin (250 mg to 1.5 grams per day), rifabutin (150 mg to 750 mg per day) and clofazimine (3 mg/kg to 10 mg/kg) was used.
After four months of treatment, five patients were examined colonoscopically.
In these three patients, a combination of clarithromycin and rifabutin (same dosages as above) together with added clofazimine, 2 mg per kg, made up a preferred therapy. […] No prednisone, azathioprine or 5ASA compounds were used. […] This dose was increased at one stage to 50 mg per kg in an attempt to reverse the inflammatory process and then reduced to 10 mg per kg. […] In yet a further patient four drugs were used simultaneously because of resistance to clarithromycin. Azithromycin, 500 mg each morning (range 250-1,500 mg) was used in combination with rifabutin, clofazimine, and ethambutol.

Structure (SMILES) | clinical response after rifabutin was changed to ethambutol (one patient, ethambutol 400 mg twice daily, raised to 50 mg per kg, then 10 mg per kg, with clarithromycin and clofazimine) | sensitivity (adverse reaction) (one patient on the combination therapy)
CC[C@@H](CO)NCCN[C@@H](CC)CO [ethambutol] | reversal of the inflammatory process with loss of diarrhoea, loss of bleeding, and ultimately loss of urgency | –
CO[C@H]1/C=C/O[C@@]2(C)Oc3c(C)c(O)c4c(c3C2=O)C2=NC3(CCN(CC(C)C)CC3)NC2=C(NC(=O)/C(C)=C\C=C\[C@H](C)[C@H](O)[C@@H](C)[C@@H](O)[C@@H](C)[C@H](OC(C)=O)[C@@H]1C)C4=O [rifabutin] | – | marked headaches and fever
